Article PMC8550792, “Evolution of kinase polypharmacology across HSP90 drug discovery” (Cell Chemical Biology, 2021)

How the values were obtained:
Test in all cases: biochemical
Type in all cases: biochemical
382 unique human kinases [1] = biological target: T1, 382 unique human kinases (Homo sapiens, UniProt P00533, D761Y); conditions: kinase EGFR (D761Y), compound 10 uM; for remaining activity at 10 µM: read-out: % Enzyme Activity (relative to DMSO controls)
T1 construct: purchased Reaction Biology (HotSpot contract assay)

382 unique human kinases [2] = biological target: T2, 382 unique human kinases (Homo sapiens, UniProt P08922); conditions: ROS/ROS1, 10 uM; for remaining activity at 10 µM: read-out: % Enzyme Activity (relative to DMSO controls)
T2 construct: purchased Reaction Biology (HotSpot contract assay)

382 unique human kinases [3] = biological target: T3, 382 unique human kinases (Homo sapiens, UniProt P31751); conditions: kinase AKT2, compound 10 uM; for remaining activity at 10 µM: read-out: % Enzyme Activity (relative to DMSO controls)
T3 construct: purchased Reaction Biology (HotSpot contract assay)

382 unique human kinases [4] = biological target: T4, 382 unique human kinases (Homo sapiens, UniProt Q00537); conditions: kinase CDK17/cyclin Y (PCTK2), compound 10 uM; for remaining activity at 10 µM: read-out: % Enzyme Activity (relative to DMSO controls)
T4 construct: purchased Reaction Biology (HotSpot contract assay)

382 unique human kinases [5] = biological target: T5, 382 unique human kinases (Homo sapiens, UniProt Q8IWQ3); conditions: kinase BRSK2, compound 10 uM; for remaining activity at 10 µM: read-out: % Enzyme Activity (relative to DMSO controls)
T5 construct: purchased Reaction Biology (HotSpot contract assay)
T5 sequence (Q8IWQ3 1-736): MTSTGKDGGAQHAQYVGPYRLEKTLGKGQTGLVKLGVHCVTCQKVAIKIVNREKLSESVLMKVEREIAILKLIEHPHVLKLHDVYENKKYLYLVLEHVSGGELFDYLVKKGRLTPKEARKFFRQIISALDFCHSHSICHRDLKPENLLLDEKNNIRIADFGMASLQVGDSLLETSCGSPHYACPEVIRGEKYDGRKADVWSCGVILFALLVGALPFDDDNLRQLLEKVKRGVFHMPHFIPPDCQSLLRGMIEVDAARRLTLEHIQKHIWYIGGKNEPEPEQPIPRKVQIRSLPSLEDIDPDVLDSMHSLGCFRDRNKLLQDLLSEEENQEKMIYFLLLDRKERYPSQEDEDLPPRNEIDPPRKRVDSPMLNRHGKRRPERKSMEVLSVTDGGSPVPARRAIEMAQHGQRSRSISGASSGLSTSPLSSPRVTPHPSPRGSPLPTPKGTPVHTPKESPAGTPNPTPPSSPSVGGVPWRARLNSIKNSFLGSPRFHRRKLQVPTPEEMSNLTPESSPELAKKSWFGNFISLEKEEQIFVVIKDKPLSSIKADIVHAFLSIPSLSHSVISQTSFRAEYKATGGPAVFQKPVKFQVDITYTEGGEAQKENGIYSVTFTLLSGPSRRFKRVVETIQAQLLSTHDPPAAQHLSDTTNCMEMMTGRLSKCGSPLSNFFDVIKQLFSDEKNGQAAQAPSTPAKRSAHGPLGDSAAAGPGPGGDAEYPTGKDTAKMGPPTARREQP

382 unique human kinases [6] = biological target: T6, 382 unique human kinases (Homo sapiens, UniProt Q9UEW8); conditions: STK39/STLK3, 10 uM; for remaining activity at 10 µM: read-out: % Enzyme Activity (relative to DMSO controls)
T6 construct: purchased Reaction Biology (HotSpot contract assay)

382 unique human kinases [7] = biological target: T7, 382 unique human kinases (Homo sapiens, UniProt P10721, N822K/V560G); conditions: c-Kit (V560G/N822K), [ATP] 5 µM, compound 10 uM; for remaining activity at 10 µM: read-out: % Enzyme Activity (relative to DMSO controls)
T7 construct: purchased Reaction Biology (HotSpot contract assay)

382 unique human kinases [8] = biological target: T8, 382 unique human kinases (Homo sapiens, UniProt P54753); conditions: EPHB3, 10 uM; for remaining activity at 10 µM: read-out: % Enzyme Activity (relative to DMSO controls)
T8 construct: purchased Reaction Biology (HotSpot contract assay)
T8 sequence (P54753 34-998): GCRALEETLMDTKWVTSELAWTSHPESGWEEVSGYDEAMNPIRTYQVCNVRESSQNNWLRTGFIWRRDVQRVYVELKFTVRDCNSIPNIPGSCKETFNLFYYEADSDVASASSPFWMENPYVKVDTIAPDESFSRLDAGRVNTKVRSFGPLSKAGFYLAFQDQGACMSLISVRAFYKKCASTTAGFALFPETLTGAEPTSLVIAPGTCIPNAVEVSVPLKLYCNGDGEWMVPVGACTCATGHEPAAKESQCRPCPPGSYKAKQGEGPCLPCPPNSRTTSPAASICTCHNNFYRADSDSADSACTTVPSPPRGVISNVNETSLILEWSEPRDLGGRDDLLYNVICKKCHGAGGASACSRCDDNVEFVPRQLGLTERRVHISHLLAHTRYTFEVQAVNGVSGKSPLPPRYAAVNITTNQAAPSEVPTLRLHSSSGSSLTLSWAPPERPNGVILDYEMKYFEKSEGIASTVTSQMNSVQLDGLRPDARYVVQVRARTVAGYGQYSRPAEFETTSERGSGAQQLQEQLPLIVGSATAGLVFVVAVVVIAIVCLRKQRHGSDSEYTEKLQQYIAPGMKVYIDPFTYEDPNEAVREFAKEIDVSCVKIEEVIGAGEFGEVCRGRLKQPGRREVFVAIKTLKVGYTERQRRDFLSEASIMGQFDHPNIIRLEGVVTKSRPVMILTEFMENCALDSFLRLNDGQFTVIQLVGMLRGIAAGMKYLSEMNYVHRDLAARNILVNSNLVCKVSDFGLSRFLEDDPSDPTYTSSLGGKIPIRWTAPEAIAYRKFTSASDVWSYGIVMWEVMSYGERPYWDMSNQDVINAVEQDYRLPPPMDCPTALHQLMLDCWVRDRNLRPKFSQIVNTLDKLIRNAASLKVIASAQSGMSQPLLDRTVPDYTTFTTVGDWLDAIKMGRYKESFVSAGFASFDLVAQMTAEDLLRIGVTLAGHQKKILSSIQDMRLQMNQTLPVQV

382 unique human kinases [9] = biological target: T9, 382 unique human kinases (Homo sapiens, UniProt Q09013); conditions: DMPK, 10 uM; for remaining activity at 10 µM: read-out: % Enzyme Activity (relative to DMSO controls)
T9 construct: purchased Reaction Biology (HotSpot contract assay)
T9 sequence (Q09013 1-629): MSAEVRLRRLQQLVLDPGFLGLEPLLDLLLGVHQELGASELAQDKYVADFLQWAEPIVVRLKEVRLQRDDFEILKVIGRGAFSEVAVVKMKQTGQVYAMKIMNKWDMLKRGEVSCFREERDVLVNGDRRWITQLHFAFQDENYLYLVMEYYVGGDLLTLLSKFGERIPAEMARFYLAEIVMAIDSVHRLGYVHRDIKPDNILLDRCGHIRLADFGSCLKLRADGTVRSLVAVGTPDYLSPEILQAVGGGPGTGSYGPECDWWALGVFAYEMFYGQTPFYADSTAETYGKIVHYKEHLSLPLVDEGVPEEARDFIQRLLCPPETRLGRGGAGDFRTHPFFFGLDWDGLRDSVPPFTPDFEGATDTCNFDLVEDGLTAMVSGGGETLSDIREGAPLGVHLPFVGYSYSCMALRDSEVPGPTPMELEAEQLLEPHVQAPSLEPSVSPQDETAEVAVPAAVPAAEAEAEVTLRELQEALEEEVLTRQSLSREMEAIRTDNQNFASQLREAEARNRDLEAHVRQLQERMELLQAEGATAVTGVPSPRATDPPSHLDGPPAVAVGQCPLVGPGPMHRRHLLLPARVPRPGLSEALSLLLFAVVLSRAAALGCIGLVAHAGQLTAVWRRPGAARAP

T3 sequence (P31751 whole entry): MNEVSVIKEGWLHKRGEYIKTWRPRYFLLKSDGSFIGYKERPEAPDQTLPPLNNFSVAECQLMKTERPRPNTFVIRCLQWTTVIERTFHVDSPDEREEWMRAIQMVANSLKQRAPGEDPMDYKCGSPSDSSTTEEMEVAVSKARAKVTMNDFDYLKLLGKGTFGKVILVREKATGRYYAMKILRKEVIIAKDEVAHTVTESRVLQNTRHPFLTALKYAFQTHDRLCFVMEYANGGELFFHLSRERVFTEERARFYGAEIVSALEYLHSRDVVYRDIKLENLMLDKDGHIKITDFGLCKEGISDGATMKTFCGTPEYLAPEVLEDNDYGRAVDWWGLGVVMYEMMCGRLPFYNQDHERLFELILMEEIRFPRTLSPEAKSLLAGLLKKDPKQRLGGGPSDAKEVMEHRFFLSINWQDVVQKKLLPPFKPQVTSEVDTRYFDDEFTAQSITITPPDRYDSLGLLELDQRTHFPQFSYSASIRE
T2 sequence (P08922 28-2347): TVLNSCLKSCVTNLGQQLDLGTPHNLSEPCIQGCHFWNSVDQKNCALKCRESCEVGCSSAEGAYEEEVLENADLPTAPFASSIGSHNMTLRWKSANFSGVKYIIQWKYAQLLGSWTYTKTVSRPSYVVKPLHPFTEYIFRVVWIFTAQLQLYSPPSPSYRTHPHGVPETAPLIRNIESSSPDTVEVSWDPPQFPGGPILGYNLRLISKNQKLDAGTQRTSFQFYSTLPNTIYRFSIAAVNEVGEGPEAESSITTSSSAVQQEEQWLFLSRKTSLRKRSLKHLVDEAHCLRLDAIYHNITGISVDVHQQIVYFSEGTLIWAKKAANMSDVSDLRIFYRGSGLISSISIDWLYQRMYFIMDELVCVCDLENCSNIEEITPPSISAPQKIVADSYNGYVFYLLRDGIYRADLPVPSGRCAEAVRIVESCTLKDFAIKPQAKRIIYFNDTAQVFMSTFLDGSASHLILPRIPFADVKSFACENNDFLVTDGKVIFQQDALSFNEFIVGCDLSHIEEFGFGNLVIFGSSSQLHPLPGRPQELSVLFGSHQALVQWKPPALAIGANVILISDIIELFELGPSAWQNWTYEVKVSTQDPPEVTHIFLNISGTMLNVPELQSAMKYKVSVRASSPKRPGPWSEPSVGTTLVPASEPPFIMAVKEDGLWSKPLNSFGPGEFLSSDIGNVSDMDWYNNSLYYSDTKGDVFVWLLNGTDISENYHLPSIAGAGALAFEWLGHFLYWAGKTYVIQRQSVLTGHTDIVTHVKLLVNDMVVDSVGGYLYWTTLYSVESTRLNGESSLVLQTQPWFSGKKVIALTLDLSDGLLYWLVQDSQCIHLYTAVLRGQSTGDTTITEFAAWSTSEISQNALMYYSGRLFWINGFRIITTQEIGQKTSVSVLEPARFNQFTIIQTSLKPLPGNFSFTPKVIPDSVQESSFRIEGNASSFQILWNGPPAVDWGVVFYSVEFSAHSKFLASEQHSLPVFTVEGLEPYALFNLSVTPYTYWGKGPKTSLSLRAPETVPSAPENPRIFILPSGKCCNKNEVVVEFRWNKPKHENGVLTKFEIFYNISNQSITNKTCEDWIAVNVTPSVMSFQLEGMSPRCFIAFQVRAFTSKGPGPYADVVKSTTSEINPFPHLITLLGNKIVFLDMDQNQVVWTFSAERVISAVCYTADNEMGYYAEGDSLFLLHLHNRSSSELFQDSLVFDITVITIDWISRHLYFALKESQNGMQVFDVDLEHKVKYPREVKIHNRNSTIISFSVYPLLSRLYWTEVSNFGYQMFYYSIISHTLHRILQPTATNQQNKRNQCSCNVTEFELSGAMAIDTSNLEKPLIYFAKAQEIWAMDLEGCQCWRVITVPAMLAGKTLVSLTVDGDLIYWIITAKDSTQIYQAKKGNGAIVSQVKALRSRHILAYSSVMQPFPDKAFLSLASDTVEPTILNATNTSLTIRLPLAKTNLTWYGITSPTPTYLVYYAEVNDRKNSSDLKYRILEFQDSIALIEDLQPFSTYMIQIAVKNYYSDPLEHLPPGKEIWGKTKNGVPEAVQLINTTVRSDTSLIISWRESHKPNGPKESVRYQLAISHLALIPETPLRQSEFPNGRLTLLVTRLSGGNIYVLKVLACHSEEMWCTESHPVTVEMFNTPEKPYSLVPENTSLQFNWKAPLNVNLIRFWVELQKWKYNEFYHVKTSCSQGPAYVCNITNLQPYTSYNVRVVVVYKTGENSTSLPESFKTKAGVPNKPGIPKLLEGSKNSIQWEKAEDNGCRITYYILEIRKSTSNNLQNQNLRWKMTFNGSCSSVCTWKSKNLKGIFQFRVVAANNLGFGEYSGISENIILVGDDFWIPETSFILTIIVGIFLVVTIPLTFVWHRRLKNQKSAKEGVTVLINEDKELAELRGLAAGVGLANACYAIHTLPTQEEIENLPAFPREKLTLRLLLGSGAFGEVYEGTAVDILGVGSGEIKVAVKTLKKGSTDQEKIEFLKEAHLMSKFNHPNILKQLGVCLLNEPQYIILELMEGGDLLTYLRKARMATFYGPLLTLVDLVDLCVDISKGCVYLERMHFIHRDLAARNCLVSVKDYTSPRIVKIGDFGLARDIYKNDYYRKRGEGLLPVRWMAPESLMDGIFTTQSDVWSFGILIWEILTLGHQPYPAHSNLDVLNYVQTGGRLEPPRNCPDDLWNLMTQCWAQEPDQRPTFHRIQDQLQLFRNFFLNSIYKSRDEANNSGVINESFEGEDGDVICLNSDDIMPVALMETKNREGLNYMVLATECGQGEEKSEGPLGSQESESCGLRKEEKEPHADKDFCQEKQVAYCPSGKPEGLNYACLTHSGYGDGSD
T4 sequence (Q00537 whole entry): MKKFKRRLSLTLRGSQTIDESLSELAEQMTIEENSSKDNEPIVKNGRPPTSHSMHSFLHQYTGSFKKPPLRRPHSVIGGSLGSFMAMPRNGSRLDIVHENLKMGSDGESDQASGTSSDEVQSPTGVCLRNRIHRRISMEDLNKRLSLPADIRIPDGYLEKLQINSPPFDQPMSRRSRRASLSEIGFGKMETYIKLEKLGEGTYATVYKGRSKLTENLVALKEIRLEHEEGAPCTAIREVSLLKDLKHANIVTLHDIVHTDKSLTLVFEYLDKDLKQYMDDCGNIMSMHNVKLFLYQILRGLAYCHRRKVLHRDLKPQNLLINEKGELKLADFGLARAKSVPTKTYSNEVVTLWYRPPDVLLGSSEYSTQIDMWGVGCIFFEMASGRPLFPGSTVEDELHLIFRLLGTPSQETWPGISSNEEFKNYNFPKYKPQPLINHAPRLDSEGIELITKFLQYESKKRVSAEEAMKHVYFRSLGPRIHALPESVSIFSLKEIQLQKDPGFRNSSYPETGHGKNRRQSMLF
T7 sequence (P10721 26-976 V560G/N822K): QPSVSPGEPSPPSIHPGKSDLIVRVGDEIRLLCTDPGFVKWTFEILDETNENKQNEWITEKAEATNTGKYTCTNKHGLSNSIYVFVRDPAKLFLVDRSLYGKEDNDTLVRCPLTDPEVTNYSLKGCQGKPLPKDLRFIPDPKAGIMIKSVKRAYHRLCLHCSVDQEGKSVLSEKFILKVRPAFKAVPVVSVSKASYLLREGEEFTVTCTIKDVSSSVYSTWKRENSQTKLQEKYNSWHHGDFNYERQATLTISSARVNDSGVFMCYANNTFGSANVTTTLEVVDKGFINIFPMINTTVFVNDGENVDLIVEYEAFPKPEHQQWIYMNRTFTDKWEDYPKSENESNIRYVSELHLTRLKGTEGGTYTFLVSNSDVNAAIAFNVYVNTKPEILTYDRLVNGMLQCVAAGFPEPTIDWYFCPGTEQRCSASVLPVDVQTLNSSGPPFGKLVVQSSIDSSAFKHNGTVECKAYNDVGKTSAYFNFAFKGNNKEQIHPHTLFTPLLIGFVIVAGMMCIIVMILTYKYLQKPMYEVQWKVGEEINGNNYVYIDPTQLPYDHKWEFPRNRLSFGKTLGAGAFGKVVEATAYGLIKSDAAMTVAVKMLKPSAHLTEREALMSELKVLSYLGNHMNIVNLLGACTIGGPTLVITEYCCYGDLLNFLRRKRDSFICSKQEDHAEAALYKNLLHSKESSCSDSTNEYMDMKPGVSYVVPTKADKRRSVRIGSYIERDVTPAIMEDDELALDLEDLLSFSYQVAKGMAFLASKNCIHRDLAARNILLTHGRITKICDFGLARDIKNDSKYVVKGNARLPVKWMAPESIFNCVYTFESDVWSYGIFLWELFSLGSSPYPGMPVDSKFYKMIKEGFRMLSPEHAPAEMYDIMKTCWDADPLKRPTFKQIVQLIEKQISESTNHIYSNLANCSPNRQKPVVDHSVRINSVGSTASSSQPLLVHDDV

Row | SMILES | remaining activity at 10 µM (382 unique human kinases [1]) [%] | remaining activity at 10 µM (382 unique human kinases [2]) [%] | remaining activity at 10 µM (382 unique human kinases [3]) [%] | remaining activity at 10 µM (382 unique human kinases [4]) [%] | remaining activity at 10 µM (382 unique human kinases [5]) [%] | remaining activity at 10 µM (382 unique human kinases [6]) [%] | remaining activity at 10 µM (382 unique human kinases [7]) [%] | remaining activity at 10 µM (382 unique human kinases [8]) [%] | remaining activity at 10 µM (382 unique human kinases [9]) [%] | % Enzyme Activity (relative to DMSO controls) (382 unique human kinases [7]) [%] | % Enzyme Activity (relative to DMSO controls) (382 unique human kinases [8]) [%] | % Enzyme Activity (relative to DMSO controls) (382 unique human kinases [9]) [%] | % Enzyme Activity (relative to DMSO controls) (382 unique human kinases [1]) [%] | % Enzyme Activity (relative to DMSO controls) (382 unique human kinases [2]) [%] | % Enzyme Activity (relative to DMSO controls) (382 unique human kinases [3]) [%] | % Enzyme Activity (relative to DMSO controls) (382 unique human kinases [4]) [%] | % Enzyme Activity (relative to DMSO controls) (382 unique human kinases [5]) [%] | % Enzyme Activity (relative to DMSO controls) (382 unique human kinases [6]) [%]
1 | CC(C)c1cc(-c2n[nH]c(=O)n2-c2ccc3c(ccn3C)c2)c(O)cc1O [Ganetespib (STA9090)] | 90 | 70.2 | 83.9 | 86.5 | 82.8 | 70.5 |  |  |  |  |  |  |  |  |  |  |  | 
2 | CC(C)c1cc(-c2n[nH]c(=O)n2-c2ccc3c(ccn3C)c2)c(O)cc1O [Ganetespib] |  |  |  |  |  |  | 41.8 | 94.5 | 110 |  |  |  |  |  |  |  |  | 
3 | CCNC(=O)c1noc(-c2cc(C(C)C)c(O)cc2O)c1-c1ccc(CN2CCOCC2)cc1 [Luminespib] |  |  |  |  |  |  | 76.2 | 95.5 | 100 | 75.80 | 94.58 | 99.26 |  |  |  |  |  | 
4 | CCNC(=O)c1noc(-c2cc(C(C)C)c(O)cc2O)c1-c1ccc(CN2CCOCC2)cc1 [Luminespib (AUY-922)] | 98.1 | 90.8 | 97.3 | 80.7 | 83.9 | 93.8 |  |  |  |  |  |  | 97.70 | 89.10 | 96.69 | 80.06 | 83.62 | 90.56
